# Reference: PubChem BioAssay (NCI)
#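 Exposure lasted 48 hours, with cells grown in 96-well plates and compounds tested at five concentrations. GI50 is the concentration that inhibits growth by half. At the TGI there is no net growth.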
# Assays:
# Experiment in all cases: NCI-60 cell line screen, 48 h
# NCI-H460 lung = test system: NCI-H460 lung
# K-562 leukemia = test system: K-562 leukemia
# CAKI-1 renal = test system: CAKI-1 renal
# OVCAR-3 ovarian = test system: OVCAR-3 ovarian
# SF-539 CNS = test system: SF-539 CNS
# HOP-92 NSCLC = test system: HOP-92 NSCLC
# SN12C renal = test system: SN12C renal
# NCI-H226 lung = test system: NCI-H226 lung
# SNB-75 CNS = test system: SNB-75 CNS
# OVCAR-4 ovarian = test system: OVCAR-4 ovarian
# HCC-2998 colon = test system: HCC-2998 colon
# SK-OV-3 ovarian = test system: SK-OV-3 ovarian
# SK-MEL-28 melanoma = test system: SK-MEL-28 melanoma
# COLO 205 colon = test system: COLO 205 colon
# MDA-MB-231 breast = test system: MDA-MB-231 breast
# HS 578T breast = test system: HS 578T breast
# T-47D breast = test system: T-47D breast
# NCI-H23 lung = test system: NCI-H23 lung
# IGROV1 ovarian = test system: IGROV1 ovarian
# UACC-62 melanoma = test system: UACC-62 melanoma
# SW-620 colon = test system: SW-620 colon
# U251 CNS = test system: U251 CNS
# ACHN renal = test system: ACHN renal
# DU-145 prostate = test system: DU-145 prostate
# OVCAR-5 ovarian = test system: OVCAR-5 ovarian
# LOX IMVI melanoma = test system: LOX IMVI melanoma
# HT29 colon = test system: HT29 colon
compound,measurement,setting,value
Cc1cc(NC(=O)c2cnc(N3CCN(CCOCCOCCOCCOCCC(=O)N[C@H](C(=O)N4C[C@H](O)C[C@H]4C(=O)N[C@@H](C)c4ccc(-c5scnc5C)cc4)C(C)(C)C)CC3)cn2)c2ncccc2c1,GI50,NCI-H460 lung,3.37 µM
same,TGI,NCI-H460 lung,11 µM
same,GI50,K-562 leukemia,3.1 µM
same,TGI,K-562 leukemia,> 100 µM
same,GI50,CAKI-1 renal,9.33 µM
same,TGI,CAKI-1 renal,> 100 µM
same,GI50,OVCAR-3 ovarian,2.13 µM
same,TGI,OVCAR-3 ovarian,4.45 µM
same,GI50,SF-539 CNS,2.12 µM
same,TGI,SF-539 CNS,4.68 µM
same,GI50,HOP-92 NSCLC,2.3 µM
same,TGI,HOP-92 NSCLC,9.37 µM
same,GI50,SN12C renal,2.52 µM
same,TGI,SN12C renal,7.64 µM
same,GI50,NCI-H226 lung,28.7 µM
same,TGI,NCI-H226 lung,> 100 µM
same,GI50,SNB-75 CNS,2.1 µM
same,TGI,SNB-75 CNS,15 µM
same,GI50,OVCAR-4 ovarian,4.49 µM
same,TGI,OVCAR-4 ovarian,25 µM
same,GI50,HCC-2998 colon,1.75 µM
same,TGI,HCC-2998 colon,3.25 µM
same,GI50,SK-OV-3 ovarian,8.5 µM
same,TGI,SK-OV-3 ovarian,> 100 µM
same,GI50,SK-MEL-28 melanoma,2.54 µM
same,TGI,SK-MEL-28 melanoma,6.7 µM
same,GI50,COLO 205 colon,5.11 µM
same,TGI,COLO 205 colon,> 100 µM
same,GI50,MDA-MB-231 breast,1.98 µM
same,TGI,MDA-MB-231 breast,3.98 µM
same,GI50,HS 578T breast,2.59 µM
same,TGI,HS 578T breast,9.17 µM
same,GI50,T-47D breast,3.03 µM
same,TGI,T-47D breast,17.9 µM
same,GI50,NCI-H23 lung,3.57 µM
same,TGI,NCI-H23 lung,15.8 µM
same,GI50,IGROV1 ovarian,2.39 µM
same,TGI,IGROV1 ovarian,8.17 µM
same,GI50,UACC-62 melanoma,1.71 µM
same,TGI,UACC-62 melanoma,3.36 µM
same,GI50,SW-620 colon,2.38 µM
same,TGI,SW-620 colon,5.65 µM
same,GI50,U251 CNS,2.74 µM
same,TGI,U251 CNS,7.92 µM
same,GI50,ACHN renal,12 µM
same,TGI,ACHN renal,> 100 µM
same,GI50,DU-145 prostate,6.16 µM
same,TGI,DU-145 prostate,> 100 µM
same,GI50,OVCAR-5 ovarian,14.9 µM
same,TGI,OVCAR-5 ovarian,50.8 µM
same,GI50,LOX IMVI melanoma,1.84 µM
same,TGI,LOX IMVI melanoma,3.39 µM
same,GI50,HT29 colon,2.54 µM
same,TGI,HT29 colon,7.63 µM
